From patent US10125125B2, “N-(heteroaryl)-sulfonamide derivatives useful as S100-inhibitors” (Active Biotech AB, priority 2013, dated 2018)
Read-outs that look alike come from different tables or passages of the source.

Key:
[1] = molecular target: biotinylated human S100A9 : rhRAGE-Fc interaction (Homo sapiens (Human), UniProt P06702); assay: AlphaScreen inhibition assay, Biot-hS100A9:hRAGE-Fc (S100A9-RAGE inhibition assay); format: binding
Source text: FIG. 1 is a schematic representation of an assay of the inhibition of the interaction between biotinylated human S100A9 and human RAGE-Fc using a small molecule S100A9 binder.
Inhibition Assay, Biot-hS100A9:hRAGE-Fc
The AlphaScreen (Amplified Luminescent Proximity Homogeneous Assay) contains two types of beads, Alpha Donor beads and Acceptor beads (PerkinElmer). Upon laser excitation at 680 nm a photosensitizer in the Donor bead converts ambient oxygen to a more excited singlet state. The singlet oxygen molecule diffuses (maximum 200 nm) to react with a thioxene derivative in the Acceptor bead and generates a chemiluminescence reaction. Fluorophores in the Acceptor bead subsequently emit light at 520-620 nm which can be detected in the EnVision® Multilabel plate Reader (PerkinElmer). The beads are light sensitive and all work with the beads is performed under subdued light conditions or using green filters on light sources (Roscolux Chroma Green #389, Rosco).
In the AlphaScreen Inhibition Assay described here, protein A (Staphylococcus aureus) conjugated Acceptor beads are used together with streptavidin coated Donor beads (Perkin Elmer 6760617M). The Acceptor beads are pre-incubated with Fc-tagged recombinant human RAGE (rhRAGE-Fc) allowing binding of the rhRAGE-Fc to protein A on the beads. Biotinylated human S100A9 (biot-hS100A9) is pre-incubated with the low molecular test compounds. The pre-mixes are then added to the wells of a micro-plate and incubated allowing interaction between biot-hS100A9 and rhRAGE-Fc. Subsequent addition of streptavidin coated Donor beads causes binding of the streptavidin to the biotinylated hS100A9. After an additional incubation the signal is measured.
Without inhibitory compounds, the interaction of biot-hS100A9 to rhRAGE-Fc will bring the Acceptor and Donor beads in close proximity thus generating a high signal. With an inhibitor present the complex will not form resulting in a decreased signal.
Chemicals and reagents. • AlphaScreen® General IgG (Protein A) Detection Kit, (PerkinElmer 6760617M) • HBS-P buffer (GE Healthcare, BR-1003-68) • HBS-N buffer (GE Healthcare, BR-1003-69) • CaCl2 in HBS-P • ZnCl2 in Milli-Q water • DMSO • Biotinylated hS100A9, (biotinylated via cystein by EZ-link Iodoacetyl-PEG2-Biotin reagent (Pierce no. 21334), in HBS-N • rhRAGE-Fc (R&D Systems, 1145-RG-50), in HBS-P
The AlphaScreen assay method is used for screening of the inhibitory effect of different compound samples at fixed concentrations or for IC50 determination by varying the compound concentrations. Samples of test compounds and references are prepared from solutions in DMSO. Relevant reference inhibitors and DMSO are used as controls for defined inhibition and non-inhibition, respectively in the assay. The percent inhibition in assay for test compounds and references are calculated by comparing their obtained assay signals with the signal values for the control with only DMSO (no compound).
Assay concentration of biotinylated hS100A9 and rhRAGE-Fc are batch dependent, and are determined and defined by separate cross-titration experiments using this AlphaScreen inhibition method to verify the optimal setup regarding signal strength and achievement of a defined inhibition with relevant reference compounds. The Final assay concentrations of Acceptor and Donor beads are 20 μg/mL.
Experimental Set Up for Screening, Preparation of Solutions and Beads.
Assay buffer is prepared by adding CaCl2 and ZnCl2 to HBS-P and is used freshly prepared in the experiment.
Biotin-hS100A9 solution for the experiment is prepared by dilution of appropriate amount of stock solution biot-hS100A9 in assay buffer (with CaCl2 and ZnCl2) and incubation in room temperature for 30 minutes.
rhRAGE-Fc solution for the experiment is prepared by dilution appropriate amount of rhRAGE-Fc stock in assay buffer.
Protein A Acceptor beads are diluted in assay buffer and are added to an equal volume of the prepared diluted rhRAGE-Fc solution.

[2] = Prodrug assay: plasma concentrations of prodrugs and demethylated parents after cassette dosing, LC-MS; format: in vivo, C57 Bl/6 mice; conditions: C57 Bl/6, mouse, solution, read-out: Parent (demethylated compound) Conc. in plasma after prodrug dosing
Description: ABR-239313, 239470 and 239749 were administered to seven C57 Bl/6 mice as a cassette formulation either intravenously (4 animals, nominal 1 mg/kg) or per oral (3 animals, nominal 5 mg/kg).
Blood samples were collected at time points ranging from 5 minutes to 7 hours after administration. After sample withdrawal, plasma was directly separated and frozen until analysis.
The plasma as well as the formulation samples were analyzed with respect to the concentration of ABR-239313, 239470, 239749 and the corresponding demethylated compounds, i.e. Examples 9, 75 and 73 (ABR-239247, 239417 and 239167) by means of LC-MS.
The samples were precipitated with acidified acetonitrile and centrifuged prior to injection on LC-MS system (consisting of a triple quadrupole instrument operated in negative MRM ionization mode, and a fast-gradient reversed-phase LC on a Symmetry Shield RP18, 2×30 mm, 3.5 um column).
In Table 3 the concentrations of each analyte are presented.

[3] = intravenous, i.v. cassette of prodrugs, nominal 1 mg/kg
[4] = oral, p.o. cassette of prodrugs, nominal 5 mg/kg

Sequence of biotinylated human S100A9 : rhRAGE-Fc interaction (P06702 whole entry): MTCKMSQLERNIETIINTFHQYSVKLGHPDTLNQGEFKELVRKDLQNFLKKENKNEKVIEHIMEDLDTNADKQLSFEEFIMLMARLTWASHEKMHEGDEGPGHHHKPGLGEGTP

IC50 [1] [nM]	also measured	Compound
1800	–	CS(=O)(=O)c1cnc(NS(=O)(=O)c2cc(Cl)cc(Cl)c2)c(O)n1 [Example 159, 3,5-dichloro-N-(3-hydroxy-5-methanesulfonylpyrazin-2-yl)benzene-1-sulfonamide]
1200	concentration at 0.083 h ([2]; intravenous, i.v. cassette of prodrugs, nominal 1 mg/kg, 0.083 h): 89 nM; concentration at 0.5 h [2, 3]: 200 nM; concentration at 1 h [2, 3]: 190 nM; concentration at 2 h [2, 3]: 210 nM; concentration at 4 h [2, 3]: 180 nM; concentration at 7 h [2, 3]: 130 nM; concentration at 0.5 h [2, 4]: 460 nM; concentration at 1 h [2, 4]: 490 nM; concentration at 2 h [2, 4]: 690 nM; concentration at 4 h [2, 4]: 610 nM; concentration at 7 h [2, 4]: 780 nM	O=S(=O)(Nc1cnc(Cl)cc1O)c1cc(Cl)sc1Cl [Example 73, 2,5-dichloro-N-(6-chloro-4-hydroxypyridin-3-yl)thiophene-3-sulfonamide]
4600	–	O=S(=O)(Nc1cnccc1O)c1cc(Cl)sc1Cl [Example 63, 2,5-dichloro-N-(4-hydroxypyridin-3-yl)thiophene-3-sulfonamide]
300	–	O=S(=O)(Cc1cc(F)cc(Cl)c1)Nc1nnc(Cl)cc1O [Example 94, N-(6-chloro-4-hydroxypyridazin-3-yl)-1-(3-chloro-5-fluorophenyl)methane-sulfonamide]
> 1000	–	COc1ccc(S(=O)(=O)Nc2cncc(Cl)c2O)cc1Cl [Example 122, 3-chloro-N-(5-chloro-4-hydroxypyridin-3-yl)-4-methoxybenzene-1-sulfonamide]
< 1000	–	O=S(=O)(Cc1cc(Cl)sc1Cl)Nc1ncc(Cl)cc1O [Example 20, N-(5-chloro-3-hydroxypyridin-2-yl)-1-(2,5-dichlorothiophen-3-yl)methane-sulfonamide]
120	–	O=S(=O)(Cc1cc(Cl)cc(Cl)c1)Nc1ncc(S(=O)(=O)C2CCCC2)cc1O [Example 131, N-[5-(cyclopentanesulfonyl)-3-hydroxypyridin-2-yl]-1-(3,5-dichlorophenyl)methane-sulfonamide]
120	–	N#Cc1cnc(NS(=O)(=O)Cc2cc(Cl)cc(Cl)c2)c(O)c1 [Example 189, N-(5-cyano-3-hydroxypyridin-2-yl)-1-(3,5-dichlorophenyl)methanesulfonamide]
2000	–	O=S(=O)(Nc1nnc(Cl)cc1O)c1cc(Cl)sc1Cl [Example 113, 2,5-dichloro-N-(6-chloro-4-hydroxypyridazin-3-yl)thiophene-3-sulfonamide]
1000	–	COc1ncc(S(=O)(=O)Nc2nnc(Cl)cc2O)cc1Br [Example 114, 5-bromo-N-(6-chloro-4-hydroxypyridazin-3-yl)-6-methoxypyridine-3-sulfonamide]
2600	–	O=S(=O)(Nc1cc(Cl)cnc1O)c1cc(Cl)sc1Cl [Example 74, 2,5-dichloro-N-(5-chloro-2-hydroxypyridin-3-yl)thiophene-3-sulfonamide]
100	–	CCS(=O)(=O)c1cc(O)c(NS(=O)(=O)Cc2cc(Cl)cc(Cl)c2)nn1 [Example 111, 1-(3,5-dichlorophenyl)-N-[6-(ethanesulfonyl)-4-hydroxypyridazin-3-yl]methanesulfonamide]
< 1000	–	O=S(=O)(Nc1ccnc(Cl)c1O)c1cc(Cl)cc(Cl)c1 [Example 170, 3,5-dichloro-N-(2-chloro-3-hydroxypyridin-4-yl)benzene-1-sulfonamide]
> 1000	–	CN(C)c1ncc(S(=O)(=O)Nc2ncc(Cl)cc2O)cc1S(C)(=O)=O [Example 136, N-(5-chloro-3-hydroxypyridin-2-yl)-6-(dimethylamino)-5-methanesulfonylpyridine-3-sulfonamide]
> 1000	–	CC(C)c1cnc(NS(=O)(=O)c2cnc(Cl)c(Br)c2)c(O)c1 [Example 11, 5-bromo-6-chloro-N-[3-hydroxy-5-(propan-2-yl)pyridin-2-yl]pyridine-3-sulfonamide]
3100	–	O=S(=O)(Cc1ccc(Cl)c(Cl)c1)Nc1cc(Cl)cnc1O [Example 172, N-(5-chloro-2-hydroxypyridin-3-yl)-1-(3,4-dichlorophenyl)methanesulfonamide]
700	–	O=S(=O)(Nc1nnc(Cl)cc1O)c1cc(Cl)cc(Cl)c1 [Example 95, 3,5-dichloro-N-(6-chloro-4-hydroxypyridazin-3-yl)benzene-1-sulfonamide]
< 1000	–	N#Cc1cnc(NS(=O)(=O)Cc2cc(Cl)cc(Cl)c2)c(O)n1 [Example 103, N-(5-cyano-3-hydroxypyrazin-2-yl)-1-(3,5-dichlorophenyl)methanesulfonamide]
> 1000	–	O=S(=O)(Nc1nnc(C(F)(F)F)cc1O)c1cc(F)cc(Cl)c1 [Example 163, 3-chloro-5-fluoro-N-[4-hydroxy-6-(trifluoromethyl)pyridazin-3-yl]benzene-1-sulfonamide]
< 1000	–	O=S(=O)(Cc1cc(Cl)cc(Cl)c1)Nc1ccncc1O [Example 167, 1-(3,5-dichlorophenyl)-N-(3-hydroxypyridin-4-yl)methanesulfonamide]
390	–	N#Cc1nc(NS(=O)(=O)Cc2cc(Cl)cc(Cl)c2)c(O)cc1Cl [Example 130, N-(5-chloro-6-cyano-3-hydroxypyridin-2-yl)-1-(3,5-dichlorophenyl)methane-sulfonamide]
3900	–	N#Cc1cncc(NS(=O)(=O)Cc2cc(Cl)cc(Cl)c2)c1O [Example 138, N-(5-cyano-4-hydroxypyridin-3-yl)-1-(3,5-dichlorophenyl)methanesulfonamide]
